From patent US20240270762A1, “PENICILLIN-BINDING PROTEIN INHIBITORS” (priority 2021, published 2024)
pEC50: −log10 of the molar value. ≈ marks a conversion by molar mass, not a printed value.

Assays:
[1] = tested on: B. humptydooensis ATCC BAA-2767; assay: microbe, parasite or virus in culture; type: cell-based; conditions: Burkholderia humptydooensis, ATCCBAA2767, read-out: Minimum inhibitory concentration (MIC), B. humptydooensis ATCC BAA-2767
A. baumannii ATCC 17978 = assay: microbe, parasite or virus in culture; type: cell-based; conditions: Acinetobacter baumannii, ATCC17978, read-out: MIC, A. baumannii ATCC 17978
P. aeruginosa ATCC 27853 = assay: microbe, parasite or virus in culture; type: cell-based; conditions: Pseudomonas aeruginosa, ATCC27853, read-out: Minimum inhibitory concentration, P. aeruginosa ATCC 27853
A. baumannii ATCC 19606 = assay: microbe, parasite or virus in culture; type: cell-based; conditions: Acinetobacter baumannii, ATCC19606, read-out: MIC, A. baumannii ATCC 19606
A. baumannii PBP2 = A. baumannii PBP2 (Acinetobacter baumannii, UniProt D0C8Z9); assay: Bocillin-FL competition binding via gel filtration, A. baumannii PBP2
A. baumannii PBP2, sequence (D0C8Z9 whole entry): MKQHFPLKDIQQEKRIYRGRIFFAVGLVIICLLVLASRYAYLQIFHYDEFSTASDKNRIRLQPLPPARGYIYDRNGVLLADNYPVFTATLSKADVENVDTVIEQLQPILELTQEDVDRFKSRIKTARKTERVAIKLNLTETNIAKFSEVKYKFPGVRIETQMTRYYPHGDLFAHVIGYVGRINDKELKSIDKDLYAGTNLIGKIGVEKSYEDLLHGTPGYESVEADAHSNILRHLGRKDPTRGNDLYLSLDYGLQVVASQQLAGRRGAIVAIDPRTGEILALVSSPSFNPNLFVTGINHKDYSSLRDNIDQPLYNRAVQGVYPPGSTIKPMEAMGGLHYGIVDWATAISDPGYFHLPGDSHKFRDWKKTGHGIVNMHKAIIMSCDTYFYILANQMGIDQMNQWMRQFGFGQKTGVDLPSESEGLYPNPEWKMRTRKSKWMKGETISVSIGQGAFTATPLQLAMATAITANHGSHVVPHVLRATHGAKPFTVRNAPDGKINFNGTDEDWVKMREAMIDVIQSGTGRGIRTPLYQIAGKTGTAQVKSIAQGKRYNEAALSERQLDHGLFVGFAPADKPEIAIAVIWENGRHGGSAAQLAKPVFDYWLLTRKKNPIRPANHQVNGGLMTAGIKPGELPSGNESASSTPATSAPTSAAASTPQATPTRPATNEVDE
Summary of the method: (§1)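 Competitive equilibrium binding; reporter Bocillin-FL. PBP + inhibitor (titration) pre-incubated → Bocillin-FL, 15 min → gel filtration → fluorescence. EC50 from Hill fit of fraction bound vs [inhibitor].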

P. aeruginosa CDC-0110 = assay: microbe, parasite or virus in culture; type: cell-based; conditions: Pseudomonas aeruginosa, CDC0110, read-out: Minimum inhibitory concentration, P. aeruginosa CDC-0110
A. baumannii CDC-0083 = assay: microbe, parasite or virus in culture; type: cell-based; conditions: Acinetobacter baumannii, CDC0083, read-out: MIC, A. baumannii CDC-0083
A. baumannii CDC-0036 = assay: microbe, parasite or virus in culture; type: cell-based; conditions: Acinetobacter baumannii, CDC0036, read-out: MIC, A. baumannii CDC-0036
[2] = tested on: P. aeruginosa (ΔmexAB-oprM); assay: Broth microdilution MIC in iron-depleted CAMHB (IDM); type: cell-based; conditions: Pseudomonas aeruginosa; iron-depleted CAMHB (IDM); […]; read-out: Minimum inhibitory concentration, P. aeruginosa ΔmexAB-oprM
A. baumannii PBP1a = molecular target: T1, A. baumannii PBP1a (Acinetobacter baumannii, UniProt A0ABX6CK30); assay: Bocillin-FL competition binding via gel filtration, A. baumannii PBP1a; conditions: competition binding assay using Bocillin-FL via gel filtration; read-out: A. baumannii PBP1a Potency
T1 sequence (A0ABX6CK30 1-851): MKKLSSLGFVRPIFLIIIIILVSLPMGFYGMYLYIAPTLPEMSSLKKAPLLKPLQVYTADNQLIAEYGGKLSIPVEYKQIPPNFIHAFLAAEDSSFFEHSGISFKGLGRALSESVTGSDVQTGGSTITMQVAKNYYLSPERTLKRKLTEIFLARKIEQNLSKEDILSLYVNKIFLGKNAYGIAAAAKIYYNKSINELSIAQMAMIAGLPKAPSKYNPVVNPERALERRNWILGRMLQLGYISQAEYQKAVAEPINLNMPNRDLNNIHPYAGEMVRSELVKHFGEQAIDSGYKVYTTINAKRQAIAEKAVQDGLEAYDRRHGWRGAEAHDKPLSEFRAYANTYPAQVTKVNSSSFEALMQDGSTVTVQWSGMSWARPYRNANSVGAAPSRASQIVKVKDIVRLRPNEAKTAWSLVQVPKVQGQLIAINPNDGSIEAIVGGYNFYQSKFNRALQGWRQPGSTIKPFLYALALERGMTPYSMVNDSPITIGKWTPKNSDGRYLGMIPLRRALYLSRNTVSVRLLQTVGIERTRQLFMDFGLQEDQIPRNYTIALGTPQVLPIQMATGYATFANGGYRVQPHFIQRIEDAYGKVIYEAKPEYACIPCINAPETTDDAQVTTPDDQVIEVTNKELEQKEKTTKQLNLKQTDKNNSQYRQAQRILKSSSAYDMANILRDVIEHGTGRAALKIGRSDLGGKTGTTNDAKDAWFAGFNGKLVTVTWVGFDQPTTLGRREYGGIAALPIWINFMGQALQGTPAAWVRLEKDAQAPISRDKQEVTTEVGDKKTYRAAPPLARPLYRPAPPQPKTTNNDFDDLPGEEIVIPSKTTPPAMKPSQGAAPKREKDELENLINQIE
Summary of the method: as §1

A. baumannii 1258916 = assay: microbe, parasite or virus in culture; type: cell-based, Acinetobacter baumannii; conditions: Acinetobacter baumannii, 1258916, read-out: MIC, A. baumannii 1258916
P. aeruginosa CDC-0054 = assay: microbe, parasite or virus in culture; type: cell-based; conditions: Pseudomonas aeruginosa, CDC0054, read-out: Minimum inhibitory concentration, P. aeruginosa CDC-0054
A. baumannii CDC-0045 = assay: microbe, parasite or virus in culture; type: cell-based; conditions: Acinetobacter baumannii, CDC0045, read-out: MIC, A. baumannii CDC-0045

Structure (SMILES)	MIC [1]	MIC (A. baumannii ATCC 17978)	MIC (P. aeruginosa ATCC 27853)	MIC (A. baumannii ATCC 19606)	pEC50 (A. baumannii PBP2)	MIC (P. aeruginosa CDC-0110)	MIC (A. baumannii CDC-0083)	MIC (A. baumannii CDC-0036)	MIC [2]	pEC50 (A. baumannii PBP1a)	MIC (A. baumannii 1258916)	MIC (P. aeruginosa CDC-0054)	MIC (A. baumannii CDC-0045)
O=C(NCCCN1CCN(C(=O)N[C@@H](C(=O)N[C@H]2Cc3ccc(F)c(C(=O)O)c3OB2O)c2cc(F)c(O)c(O)c2Cl)C(=O)C1=O)c1ccc(O)cc1F (racemic) [Example 417]	> 128 µg/mL	< 1 µg/mL	8 to 16 µg/mL (≈ 10.3 to 20.6 µM)	< 1 µg/mL	> 5.00	32 to 64 µg/mL (≈ 41.1 to 82.3 µM)	> 128 µg/mL	2 to 4 µg/mL (≈ 2.57 to 5.14 µM)	< 1 µg/mL	4.30 to 5.00	< 1 µg/mL	8 to 16 µg/mL (≈ 10.3 to 20.6 µM)	< 1 µg/mL
O=C(NCCCN1CCN(C(=O)NC(C(=O)N[C@H]2Cc3ccc(F)c(C(=O)O)c3OB2O)c2cc(F)c(O)c(O)c2Cl)C(=O)C1=O)c1cc(O)cc(F)c1 (stereo partly drawn) [Example 410, (3R)-3-(2-(2-chloro-5-fluoro-3,4-dihydroxyphenyl)-2-(4-(3-(3-fluoro-5-hydroxybenzamido)propyl)-2,3-dioxopiperazine-1-carboxamido)acetamido)-7-fluoro-2-hydroxy-3,4-dihydro-2H-benzo[e][1,2]oxaborinine-8-carboxylic acid]	> 128 µg/mL	< 1 µg/mL	< 1 µg/mL	< 1 µg/mL	> 5.00	< 1 µg/mL	< 1 µg/mL	2 to 4 µg/mL (≈ 2.57 to 5.14 µM)	< 1 µg/mL	> 5.00	2 to 4 µg/mL (≈ 2.57 to 5.14 µM)	< 1 µg/mL	< 1 µg/mL
O=C(NCCCN1CCN(C(=O)NC(C(=O)N[C@H]2Cc3ccc(F)c(C(=O)O)c3OB2O)c2cc(F)c(O)c(O)c2Cl)C(=O)C1=O)c1ccncc1Cl (stereo partly drawn) [Example 295, (3R)-3-(2-(2-chloro-5-fluoro-3,4-dihydroxyphenyl)-2-(4-(3-(3-chloroisonicotinamido)propyl)-2,3-dioxopiperazine-1-carboxamido)acetamido)-7-fluoro-2-hydroxy-3,4-dihydro-2H-benzo[e][1,2]oxaborinine-8-carboxylic acid]	< 1 µg/mL	< 1 µg/mL	2 to 4 µg/mL (≈ 2.57 to 5.13 µM)	< 1 µg/mL	4.30 to 5.00	< 1 µg/mL	< 1 µg/mL	2 to 4 µg/mL (≈ 2.57 to 5.13 µM)	< 1 µg/mL	4.30 to 5.00	< 1 µg/mL	2 to 4 µg/mL (≈ 2.57 to 5.13 µM)	< 1 µg/mL
O=C(NCCCN1CCN(C(=O)NC(C(=O)N[C@H]2Cc3ccc(F)c(C(=O)O)c3OB2O)c2cc(F)c(O)c(O)c2Cl)C(=O)C1=O)c1cc(F)c(F)c(O)c1F (stereo partly drawn) [Example 404, (3R)-3-(2-(2-chloro-5-fluoro-3,4-dihydroxyphenyl)-2-(2,3-dioxo-4-(3-(2,4,5-trifluoro-3-hydroxybenzamido)propyl)piperazine-1-carboxamido)acetamido)-7-fluoro-2-hydroxy-3,4-dihydro-2H-benzo[e][1,2]oxaborinine-8-carboxylic acid]	> 128 µg/mL	< 1 µg/mL	2 to 4 µg/mL (≈ 2.46 to 4.91 µM)	< 1 µg/mL	> 5.00	< 1 µg/mL	> 128 µg/mL	2 to 4 µg/mL (≈ 2.46 to 4.91 µM)	< 1 µg/mL	> 5.00	2 to 4 µg/mL (≈ 2.46 to 4.91 µM)	< 1 µg/mL	< 1 µg/mL
O=C(NCCCN1CCN(C(=O)NC(C(=O)N[C@H]2Cc3ccc(F)c(C(=O)O)c3OB2O)c2cc(F)c(O)c(O)c2Cl)C(=O)C1=O)c1ccc(O)c(Cl)c1 (stereo partly drawn) [Example 305, (3R)-3-(2-(4-(3-(3-chloro-4-hydroxybenzamido)propyl)-2,3-dioxopiperazine-1-carboxamido)-2-(2-chloro-5-fluoro-3,4-dihydroxyphenyl)acetamido)-7-fluoro-2-hydroxy-3,4-dihydro-2H-benzo[e][1,2]oxaborinine-8-carboxylic acid]	2 to 4 µg/mL (≈ 2.52 to 5.04 µM)	< 1 µg/mL	2 to 4 µg/mL (≈ 2.52 to 5.04 µM)	< 1 µg/mL	> 5.00	< 1 µg/mL	2 to 4 µg/mL (≈ 2.52 to 5.04 µM)	2 to 4 µg/mL (≈ 2.52 to 5.04 µM)	< 1 µg/mL	> 5.00	< 1 µg/mL	2 to 4 µg/mL (≈ 2.52 to 5.04 µM)	2 to 4 µg/mL (≈ 2.52 to 5.04 µM)
O=C(NCCCN1CCN(C(=O)NC(C(=O)N[C@H]2Cc3ccc(F)c(C(=O)O)c3OB2O)c2cc(F)c(O)c(O)c2Cl)C(=O)C1=O)c1c(F)cncc1F (stereo partly drawn) [Example 402, (3R)-3-(2-(2-chloro-5-fluoro-3,4-dihydroxyphenyl)-2-(4-(3-(3,5-difluoroisonicotinamido)propyl)-2,3-dioxopiperazine-1-carboxamido)acetamido)-7-fluoro-2-hydroxy-3,4-dihydro-2H-benzo[e][1,2]oxaborinine-8-carboxylic acid]	2 to 4 µg/mL (≈ 2.56 to 5.12 µM)	< 1 µg/mL	2 to 4 µg/mL (≈ 2.56 to 5.12 µM)	< 1 µg/mL	4.30 to 5.00	< 1 µg/mL	2 to 4 µg/mL (≈ 2.56 to 5.12 µM)	2 to 4 µg/mL (≈ 2.56 to 5.12 µM)	< 1 µg/mL	> 5.00	2 to 4 µg/mL (≈ 2.56 to 5.12 µM)	< 1 µg/mL	< 1 µg/mL
Cc1cc(C(=O)NCCCN2CCN(C(=O)N[C@@H](C(=O)N[C@H]3Cc4ccc(F)c(C(=O)O)c4OB3O)c3cc(F)c(O)c(O)c3Cl)C(=O)C2=O)ccn1 [Example 298, (R)-3-((R)-2-(2-chloro-5-fluoro-3,4-dihydroxyphenyl)-2-(4-(3-(2-methylisonicotinamido)propyl)-2,3-dioxopiperazine-1-carboxamido)acetamido)-7-fluoro-2-hydroxy-3,4-dihydro-2H-benzo[e][1,2]oxaborinine-8-carboxylic acid]	< 1 µg/mL	< 1 µg/mL	2 to 4 µg/mL (≈ 2.64 to 5.27 µM)	< 1 µg/mL	4.30 to 5.00	< 1 µg/mL	< 1 µg/mL	< 1 µg/mL	< 1 µg/mL	4.30 to 5.00	< 1 µg/mL	< 1 µg/mL	< 1 µg/mL
